Experimental data taken from publication PMC4350077, “Mechanism of Action of Thalassospiramides, A New Class of Calpain Inhibitors” (Scientific Reports, 2015).
Like-named read-outs stand apart in the source and are kept apart here.

Molecular target: T1, human calpain 1 protease (HCAN1) (Homo sapiens, UniProt P07384)
T1 construct: gene CAPN1; with Calpain small subunit 1
T1 sequence (P07384 2-714): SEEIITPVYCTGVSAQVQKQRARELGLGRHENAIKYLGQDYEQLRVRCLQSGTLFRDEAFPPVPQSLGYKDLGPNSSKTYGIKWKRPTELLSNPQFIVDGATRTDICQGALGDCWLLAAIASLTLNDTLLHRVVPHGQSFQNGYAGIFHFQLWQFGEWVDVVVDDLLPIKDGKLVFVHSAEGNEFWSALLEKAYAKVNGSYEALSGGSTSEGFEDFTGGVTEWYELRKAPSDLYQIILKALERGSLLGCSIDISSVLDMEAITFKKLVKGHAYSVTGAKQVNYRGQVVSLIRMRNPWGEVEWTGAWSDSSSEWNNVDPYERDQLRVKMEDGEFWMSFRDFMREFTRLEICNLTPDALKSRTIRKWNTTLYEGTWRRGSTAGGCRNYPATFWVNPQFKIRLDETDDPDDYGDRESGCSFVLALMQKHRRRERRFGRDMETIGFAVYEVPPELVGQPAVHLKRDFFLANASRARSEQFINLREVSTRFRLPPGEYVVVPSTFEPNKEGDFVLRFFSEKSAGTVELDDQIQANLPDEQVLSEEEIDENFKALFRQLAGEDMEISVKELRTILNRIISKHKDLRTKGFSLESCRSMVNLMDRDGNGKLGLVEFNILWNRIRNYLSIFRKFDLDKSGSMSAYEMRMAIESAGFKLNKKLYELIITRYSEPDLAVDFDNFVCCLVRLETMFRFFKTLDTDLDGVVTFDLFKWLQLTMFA
T1 sequence (P04632 1-268 partner): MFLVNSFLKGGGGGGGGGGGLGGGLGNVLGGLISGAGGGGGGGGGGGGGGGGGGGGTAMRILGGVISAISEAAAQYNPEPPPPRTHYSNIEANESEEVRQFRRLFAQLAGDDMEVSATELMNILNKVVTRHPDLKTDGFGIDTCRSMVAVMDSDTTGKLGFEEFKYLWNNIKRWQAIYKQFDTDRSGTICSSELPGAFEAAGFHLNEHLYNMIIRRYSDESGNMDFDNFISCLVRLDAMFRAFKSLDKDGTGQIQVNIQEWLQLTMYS
Test: fluorescence calpain activity assay kit (Ac-LLY-AFC)
Format: biochemical

Compound | IC50 [nM] | IC50 (Ac-LLY-AFC substrate, 37 °C, 1 h, covalent (Michael addition to Cys115)) [nM]
CCCCCCCCCC(=O)N[C@@H](CO)C(=O)N[C@H](C(=O)N[C@@H](CO)[C@@H](O)CC(=O)N[C@H](C(=O)N[C@@H]1CCC(=O)N[C@@H](C(C)C)C(=O)N(C)[C@@H](Cc2ccc(O)cc2)C(=O)OC1)C(C)C)C(C)C [compound 3, 3] | > 5000 | 
Thalassospiramide C [compound 4] |  | 3.4 ± 1.2
